# Entries after “also recorded” stand apart in the source; their conditions may differ.
# How the values were obtained:
# [1] = test system: primary breast cancer; assay: Five-year disease-free survival of node-positive breast cancer patients on tamoxifen adjuvant therapy, by AIB1 and HER-2 status; assay type: in vivo, human
# Procedure: Frozen tumor specimens from 316 patients, all of whom had positive axillary lymph nodes at the time of initial surgery, were selected for study. Such patients have higher recurrence rates after primary treatment, resulting in more events for statistical power. […] The median follow-up for patients still living is 95 months. Proteins from 30 mg of tissue were extracted in 300 μl 5% SDS at 90° C. for 5 minutes. Protein concentration was determined using the BCA method (Pierce, Rockford, Ill.); typical yields were 2-5 μg/μl. Samples were stored at −70° C. until use.
# Assays were performed and results quantified by an investigator blinded to clinical information. 20 μg of extracted protein in sample buffer (0.05 M tris, pH 6.8, containing 2% SDS, 2.5% β-mercaptoethanol, 10% glycerol, and 0.1% bromphenol blue as tracking dye) were placed in boiling water for 2 minutes, cooled to room temperature, and centrifuged for 1 minute. An MCF-7 reference standard (5 μg protein per lane) was included on each gel as a normalization control. Proteins were electrophoresed on 8% Tricine-Glycine polyacrylamide gels (Invitrogen, Carlsbad, Calif.) and then transferred onto nitrocellulose. Blots were rinsed 5 minutes with TBS (TRIS-buffered saline: 100 mM TRIS, pH 7.5, and 0.9% NaCl) containing 0.1% Tween-20 (TBST). After blocking with 5% nonfat dry milk in TBST, the blots were incubated overnight at 4° C. in the primary antibody (1:1000 rabbit anti-RAC3 antiserum). This antibody was raised in rabbits against a MBP fusion protein containing amino acid residues 582-842 of human RAC3 (AIB1).
# The blots were washed 3 times in TBST, followed by incubation for 1 hour in 5% nonfat dry milk in TBST and 1:5000 horseradish peroxidase labeled anti-rabbit Ig (Amersham, Piscataway, N.J.). The blots were washed 5 times in TBST, after which the labeled protein was visualized on a FluorChem digital imaging system (Alpha Innotech, San Leandro, Calif.) using an enhanced chemiluminescence detection system. Band intensities were measured densitometrically using the AlphaEaseFC software (Alpha Innotech, San Leandro, Calif.). AIB1 levels in tumors were normalized to the AIB1 concentration in the MCF-7 positive control lysate (5 μg) from the same immunoblot.
# ER and progesterone receptors (PR) were measured by ligand binding assays as described by Harvey et al., 1999. S-phase fraction was calculated by DNA flow cytometry and classified as low, intermediate, or high (Wenger et al, 1998). Immunohistochemistry was used to semiquantitatively measure p53 and bcl 2 expression, and HER-2 expression was determined by western blot analyses as described by Elledge et al., 1997, and Tandon et al., 1989.
# Associations between AIB1, steroid receptors, HER-2 and other molecular markers, and clinical variables were assessed using Spearman rank correlation. The disease-free survival (DFS) was calculated from the date of diagnosis. First recurrence (local or distant) was scored as an event, and patients without recurrence were censored at the time of last follow-up or death, meaning that an event of interest (e.g., recurrence or death) has not yet occurred. For graphical presentation, follow-up was truncated at 120 months. Overall survival was calculated from the date of diagnosis, with death from any cause being scored as an event. Patients who were alive at the last follow-up were censored at the last follow-up date. Survival curves were derived from Kaplan-Meier estimates, which are well known in the art, and the curves were compared by log-rank tests. Initially, separate analyses were performed for treated and untreated patients. The influence of AIB1 adjusted for other prognostic factors was assessed in multivariate analysis by Cox proportional hazards models.
# [2] = test system: MCF-7/HER-218 tumors; assay: Athymic nude mouse model, MCF-7/HER-218 tumor growth; assay type: in vivo, mice; settings: continued estrogen, or estrogen withdrawal plus tamoxifen, compared to estrogen withdrawal alone
# Procedure: Ovariectomised female BALB/c-nu+/nu+ mice 4-5 weeks of age were purchased from Harlan Sprague-Dawley (Madison, Wis.). […] Estrogen pellets (0.25 mg, 21 day release) were purchased from Innovative Research (Rockville, Md.) and half a pellet placed subcutaneously in the interscapular area of each animal on the day prior to cell injection. MCF-7/HER-218 cells were grown in 150 cm^3 flasks and split 1:5 in DMEM (Invitrogen, Calif.) supplemented with 10% FBS. When flask cell confluence reached 90-100%, cells were harvested using a soft rubber scraper, then spun down at 1000 rpm for 3 minutes, and resuspended in the original media for injection. Cells were injected at 5×10^6−1×10^7 in 0.2 ml per animal in the right mammary fat pad. […] Each individual group had 8 animals (n=8). […] Tumors were subsequently measured weekly and recorded according to the formula: Tumor volume=width^2×length/2. Animal were weighed every 2 weeks and monitored for toxicity. Tumor growth curves were constructed using the mean of tumors' volume at each measurement point with the error bars representing the standard error of the mean. Student's t-test was used to compare data between two groups. Values are expressed as relative to tumor volume to size at the beginning of treatment as mean ±s.d.
# [3] = test system: parental MCF-7 tumors; assay: Parental MCF-7 tumor growth; assay type: in vivo, mice; settings: wild-type MCF-7, tamoxifen
# [4] = test system: MCF-7 cells; assay: S-phase fraction of cells; assay type: cell-based, human; settings: agent alone
# [5] = test system: MCF-7/HER-218 cells; assay: S-phase fraction of cells; assay type: cell-based, human; settings: agent alone
# [6] = test system: AIB1 in MCF-7/HER-218 cells; assay: Western blot mobility shift of AIB1; assay type: cell-based, human
# Procedure: (§1) In PPase treatment group, cell extracts were incubated with PPase prior to analysis as previously described. Antibody against AIB1 was used.
# [7] = test system: ER in MCF-7 cells; assay: ERE luciferase reporter, ER dependent transcription; assay type: cell-based, human
# [8] = test system: ER in MCF-7/HER-218 cells; assay: as above; assay type: cell-based, human
# [9] = test system: pS2 promoter in MCF-7 cells; assay: Chromatin immunoprecipitation on the pS2 promoter; settings: 20 minute incubation
# Procedure: (§2) Wild type MCF7 and HER-2-18 cells were grown to 90% confluence in phenol red-free IMEM supplemented with 10% CDS FBS for 7 days, the cells were starved completely with phenol red-free IMEM (without serum) for overnight. […] Cells were pelleted and lysis in 1 ML SDS lysis buffer and incubated on ice for 10 min. Lysate was sonicated by three times for 10 sec. at maximum setting followed by centrifugation for 10 min at 4 C. 200 ul of supernatant was, subjected to each immunoprecipitation with specific antibody, diluted with ChIP dilution buffer 10 fold and pre-cleared with 80 ul of SS-DNA/Protein A/G agarose plus 20 ul of normal mouse or rabbit IgG (Santa Cruz) depending on primary antibody used afterward for 4 hrs at 4 C. The beads were collected and saved as normal IgG control. The pre-cleared supernatant was immunoprecipitated with antibodies against ER, or AIB1, or NcoR, or Act-H3, respectively at 4° C. for overnight, followed by SS-DNA/Protein A/G at 4 C. for 1 hr. Pellet agarose by gentle centrifugation (1000 rpm, 1 min, 4° C.). The pellets were intensively washed sequentially as follows in 1 ml volume: low salt wash buffer X 1 time, high salt wash buffer X 1 time, LiCl salt wash buffer X 1 time, TE X 2 times. […]
# [10] = test system: pS2 promoter in MCF-7/HER-218 cells; assay: Chromatin immunoprecipitation on the pS2 promoter; settings: 20 minute incubation
# Procedure: as §2
# [11] = test system: ER, EGF-R, HER-2/neu, MAPK and AKT in parental MCF-7 cells; assay: Phosphorylation analysis by western immunoblotting; settings: for Phosphorylation of EGF-R and HER-2/neu / Phosphorylation of ER on serine 118 / Phosphorylation of MAPK and AKT: short-term (20 minutes)
# Procedure: (§3) Treatments of cells with E2, 4HOT, EGF or HRG were conducted after cells were starved in phenol red-free, serum-free IMEM for 24 hr.
# (§4) Treated cells were then immediately harvested. Cells were first rinsed twice with cold PBS, and lysed in 1×cell lysis buffer (Cell Signaling Technology) supplemented with 10% Glycerol, 1 mM Pherryl Methylsulfonyl Fluoride (PMSF), 1×Complete Protease inhibitor mixture (Roche, Indianapolis, Ind.), 1 μM Okadaic acid, 10 μg/mL Microsystin as instruction from Cell Signaling Technology. Protein concentration was measured by Bio-Rad Protein Assay kit (Bio-Rad, Hercules, Calif.) according to manufacturer's instruction. 20 μg of protein extracts from individual treatments were electrophoresized on SDS-PAGE gel (Invitrogen), and electroblotted to nitrocellulose membrane (Millipore, Bedford, Mass.). Membranes were blocked with blocking buffer (5% w/v nonfat dry milk in 1×TBS with 0.1% Tween-20, TBST) for 1 hr and then incubated with primary antibody in 5% BSA TBST (for all phospho antibodies with gentle agitation overnight at 4° C., otherwise in blocking buffer for 2 hrs at room temperature). After washing and incubating with secondary horseradish peroxidase conjugated antibodies against mouse or rabbit IgG (Amershan, Arlington Heoghts, Ill. Immunoreactive proteins were detected by the ECL (Amershan). Quantitation was performed by using NIH Imagine Software.
# [12] = test system: ER, EGF-R, HER-2/neu, MAPK and AKT in MCF-7/HER-218 cells; assay: Phosphorylation analysis by western immunoblotting; settings: for Phosphorylation of EGF-R, HER-2/neu and MAPK / Phosphorylation of ER on serine 118: short-term (20 minutes)
# Procedure: as §3, §4
# [13] = test system: HER-2/neu and MAPK in BT474 cells; assay: Phosphorylation analysis by western immunoblotting; settings: 20 minute treatment
# Procedure: as §4
# [14] = test system: phosphorylated MAPK, AIB1; assay: Immunoblot of MCF-7/HER-218 tumors from treated mice
# Procedure: Treated cells were then immediately harvested. Cells were first rinsed twice with cold PBS, and lysed in 1×cell lysis buffer (Cell Signaling Technology) supplemented with 10% Glycerol, 1 mM Pherryl Methylsulfonyl Fluoride (PMSF), 1×Complete Protease inhibitor mixture (Roche, Indianapolis, Ind.), 1 μM Okadaic acid, 10 μg/mL Microsystin as instruction from Cell Signaling Technology. […] 20 μg of protein extracts from individual treatments were electrophoresized on SDS-PAGE gel (Invitrogen), and electroblotted to nitrocellulose membrane (Millipore, Bedford, Mass.). Membranes were blocked with blocking buffer (5% w/v nonfat dry milk in 1×TBS with 0.1% Tween-20, TBST) for 1 hr and then incubated with primary antibody in 5% BSA TBST (for all phospho antibodies with gentle agitation overnight at 4° C., otherwise in blocking buffer for 2 hrs at room temperature). After washing and incubating with secondary horseradish peroxidase conjugated antibodies against mouse or rabbit IgG (Amershan, Arlington Heoghts, Ill. Immunoreactive proteins were detected by the ECL (Amershan). Quantitation was performed by using NIH Imagine Software.
# [15] = test system: estrogen responsive genes in wild-type MCF-7 cells; assay: Endogenous estrogen responsive gene induction (immunoblot); settings: 12 hr induction
# Source text: (§5) The cellharvest, cell extraction preparation and immunobloting were as above.
# [16] = test system: estrogen responsive genes in MCF-7/HER-218 cells; assay: as above; settings: for Protein expression of endogenous estrogen responsive genes: 12 hr induction
# Source text: as §5
# [17] = test system: AIB1 in MCF-7 cells; assay: Western blot mobility shift of AIB1; assay type: cell-based, human; settings: reversed by phosphatase treatment
# Procedure: as §1
compound,measurement,setting,value
CC/C(=C(\c1ccccc1)c1ccc(OCCN(C)C)cc1)c1ccccc1 [tamoxifen],5 yr DFS,"[1]; High HER-2 (grade 2-4), High AIB1 (top quartile)",42%
same,5 yr DFS,"[1]; High HER-2 (grade 2-4), High AIB1 (top quartile), listed as Tamoxifen",42%
same,5 yr DFS,"[1]; High HER-2 (grade 2-4), Low AIB1 (lower 3 quartiles)",77%
same,5 yr DFS,"[1]; High HER-2 (grade 2-4), Low AIB1 (lower 3 quartiles), listed as Tamoxifen",77%
same,5 yr DFS,"[1]; Low HER-2 (grade 0-1), High AIB1 (top quartile)",82%
same,5 yr DFS,"[1]; Low HER-2 (grade 0-1), Low AIB1 (lower 3 quartiles)",64%
same,5-year DFS,[1]; other three groups combined (not high AIB1 and high HER-2),70%
same,Tumor growth,[2],increased tumor growth; also recorded: stimulated
same,Tumor growth,[3],inhibited
same,Percent of cells in S-phase,[4],no agonist effect
same,Fraction of cells in S-phase,[5],stimulated the fraction of cells in S-phase
same,AIB1 phosphorylation (mobility shift of AIB1 band),[6],phosphorylation of AIB1 was observed
same,ERE luciferase activity,[7]; agent alone,no agonist activity
same,ERE luciferase activity above control,[8]; agent alone,inability
same,Occupancy of the pS2 promoter,[9],induced occupancy of this promoter by ER but not by AIB1
same,Occupancy of the pS2 promoter,[10],induced occupancy of the pS2 promoter by ER and by AIB1
same,MAPK phosphorylation,[11]; 48 hour treatment,no effect
same,Phosphorylation of ER,[11]; 48 hour treatment,still evident
same,Phosphorylation of EGF-R and HER-2/neu,[11],could not detect phosphorylation
same,Phosphorylation of ER on serine 118,[11],phosphorylate
same,Phosphorylation of MAPK and AKT,[11],could not detect phosphorylation
same,MAPK phosphorylation,[12]; 48 hour treatment,striking effects
same,Phosphorylation of ER,[12]; 48 hour treatment,still evident
same,"Phosphorylation of EGF-R, HER-2/neu and MAPK",[12],phosphorylation was detected
same,Phosphorylation of ER on serine 118,[12],phosphorylated
same,Phosphorylated HER-2/neu and MAPK,[13],striking increase
same,Total and phosphorylated AIB1 in tumors,[14]; MCF-7/HER-218 tumors of treated mice,induced; also recorded: both higher
same,Tumor level of phosphorylated (active) MAPK,"[14]; estrogen, or estrogen withdrawal plus tamoxifen, versus estrogen withdrawal alone",activate MAPK and high
same,Protein expression of endogenous estrogen responsive genes,[15],no agonist activity
same,Protein expression of endogenous estrogen responsive genes,[16],behaved as an estrogen agonist on all of the genes
"EGF: epidermal growth factor purchased from Invitrogen (NSDSECPLSHDGYCLHDGVCMYIEALDKYACNCVVGYIGERCQYRDLKWWELR; Epidermal growth factor; UniProt P01133 971-1023, looked up)",Phosphorylation of EGF-R and HER-2/neu,[11],unable to detect phosphorylation
same,Phosphorylation of ER on serine 118,[11],phosphorylate
same,Phosphorylation of MAPK and AKT,[11],did phosphorylate MAPK and AKT
same,"Phosphorylation of EGF-R, HER-2/neu and MAPK",[12],phosphorylation was detected
same,Phosphorylation of ER on serine 118,[12],phosphorylated
heregulin,Percent of cells in S-phase,[4],markedly increased the S-phase fraction
same,Fraction of cells in S-phase,[5],stimulated the fraction of cells in S-phase
same,AIB1 phosphorylation (mobility shift of AIB1 band),[17],upshifted the AIB1 band
same,AIB1 phosphorylation (mobility shift of AIB1 band),[6],phosphorylation of AIB1 was observed
same,ERE luciferase activity,[7]; heregulin added to estrogen,two fold
same,ERE luciferase activity,[7]; heregulin added to tamoxifen,increase luciferase activity a small amount
same,ERE luciferase activity in response to both estrogen and tamoxifen,[8]; heregulin added,remarkably enhanced luciferase activity
same,Estrogen agonist properties of tamoxifen (luciferase),[8]; heregulin added to tamoxifen,levels above estrogen alone
same,Phosphorylation of EGF-R and HER-2/neu,[11],strongly phosphorylated
same,Phosphorylation of ER on serine 118,[11],phosphorylate
same,Phosphorylation of MAPK and AKT,[11],strongly phosphorylated
same,"Phosphorylation of EGF-R, HER-2/neu and MAPK",[12],phosphorylation was detected
same,Phosphorylation of ER on serine 118,[12],phosphorylated
same,Protein expression of endogenous estrogen responsive genes,[15],induced the expression of all of the genes except for progesterone receptor
same,Protein expression of endogenous estrogen responsive genes,[16],dramatic effects on several of these genes
same,Level of IRS1,[16]; heregulin,large increase
same,Protein expression of progesterone receptor,[16]; heregulin,increased

# Reference: patent US20030224467A1, “AIB1 as a prognostic marker and predictor of resistance to endocrine therapy” (priority 2002, published 2003)
